US20240374631A1, “A COMPOSITION FOR IMPROVING GUT MICROBIOTA, BEHAVIOURAL PATTERN, ALPHA-SYNUCLEIN LEVELS, SLEEP PATTERN AND/OR SERUM MELATONIN” (GN Corporation Co Ltd, priority 2021, published 2024)

System: gut microbiota
Test: Gut microbiome analysis (16S rRNA sequencing of fecal samples) in STAM model of NASH
Type: in vivo, C57BL/6J mice
Text: The study is reported in accordance with Animal Research: Reporting of In Vivo Experiments (ARRIVE) guidelines. C57BL/6J mice were obtained from Japan SLC, Inc. (Japan). All animals used in this study were cared for under the following guidelines: Act on Welfare and Management of Animals (Ministry of the Environment, Japan, Act No. 105 of Oct. 1, 1973), standards relating to the care and management of laboratory animals and relief of pain (Notice No. 88 of the Ministry of the Environment, Japan, Apr. 28, 2006) and the guidelines for proper conduct of animal experiments (Science Council of Japan, Jun. 1, 2006). Protocol approvals were obtained from SMC Laboratories, Japan's IACUC (Study reference no: […] Mice were maintained in a specific pathogen-free (SPF) facility under controlled conditions of temperature (23±3° C.), humidity (50±20%), lighting (12-hour artificial light and dark cycles; light from 8:00 to 20:00) and air exchange. The STAM model of NASH was induced as previously described [D10]. Mice were given a single subcutaneous injection of 200 μg streptozotocin (STZ, Sigma-Aldrich, USA) solution 2 days after birth and fed with a high-fat diet (HFD, 57 kcal % fat, Cat #HFD32, CLEA Japan, Inc., Japan) from 4-9 weeks of age. All mice develop liver steatosis and diabetes and at […] mice had established steatohepatitis, histologically. Studygroups: There were five study groups, described below. Eight mice were included in each study group. Eight NASH mice were orally administered vehicle supplemented with AFO-202 Beta Glucan at a dose of 1 mg/kg in a volume of 5 mL/kg once daily from 6 to 9 weeks of age. Eight NASH mice were orally administered vehicle supplemented with Telmisartan at a dose of 10 mg/kg once daily from 6 to 9 weeks of age. Frequency: Fecal samples were collected at the 6 weeks of age (before administration) and 9 weeks of age (before sacrifice). Procedure: At 6 weeks of age, fecal samples were collected from each mouse by clean catch method. […] A sterile petri dish was placed on the bench. Gently massage the abdomen, position the bottom of mouse over a fresh petri dish, and collect 1-2 fecal pellets. At sacrifice, fecal samples were aseptically collected from cecum. The tubes with feces were placed on ice immediately. These tubes were snap frozen in liquid nitrogen and stored at -80° C. for shipping. In this analysis, the 16S rRNA sequence data acquired by the next-generation sequencer from the fecal […] was used to perform community analysis using the QIIME2 program for microbial community analysis. The raw read data in FASTQ format output from the next-generation sequencer was trimmed to remove adapter sequences and low QV regions that may be included in the data. Cutadapt was used to remove adapter sequences from DNA sequencing reads. Trimmomatic was used as read trimming tool for Illumina NGS data. The adapter sequence was trimmed using the adapter trimming program “cutadapt” if the Trimming of the region at the end of the read sequence overlapped the corresponding sequence by at least one base (mismatch tolerance: 20%). When reads containing N were present in at least one of Read1 and Read2, both Read1 and Read2 were removed. Trimming of low QV regions was performed on the read data after processing using the QV trimming program “Trimmomatic” under the following conditions. The window of 20 bases is slid from the 5' side, and the area where the average QV is less than 20 is trimmed. After trimming, only the reads with more than 50 bases remaining in both Read1 and Read2 were taken as output. The microbial community analysis based on 16S rRNA sequence was performed on the sequence data trimmed in the previous section using the microbial community analysis program “QIIME2”. The annotation program “sklearn” included in QIIME2 is used to annotate the ASV (OTU) sequences. […]

SMILES: CCCc1nc2c(C)cc(-c3nc4ccccc4n3C)cc2n1Cc1ccc(-c2ccccc2C(=O)O)cc1 [Telmisartan]
- Abundance: Family Methanobacteriaceae, Genus Methanobrevibacter, Species — (pre (baseline), table row r429): 0
- Abundance: Family Lachnospiraceae, Genus Other, Species Other (pre (baseline), table row r431): 12
- Abundance: Family Lachnospiraceae, Genus Dorea, Species — (pre (baseline), table row r432): 0
- Abundance: Family Lachnospiraceae, Genus Dorea, Species — (pre (baseline), table row r433): 7
- Abundance: Family Lachnospiraceae, Genus —, Species — (pre (baseline), table row r434): 11
- Abundance: Family Erysipelotrichaceae, Genus —, Species — (pre (baseline), table row r435): 0
- Abundance: Family Other, Genus Other, Species Other (pre (baseline), table row r437): 0
- Abundance: Family Ruminococcaceae, Genus Ruminococcus, Species — (pre (baseline), table row r438): 0
- Abundance: Family Lachnospiraceae, Genus Other, Species Other (pre (baseline), table row r439): 0
- Abundance: Family Erysipelotrichaceae, Genus Clostridum, Species cocleatum (pre (baseline), table row r440): 0
- Abundance: Family Clostridiaceae, Genus —, Species — (pre (baseline), table row r441): 10
- Abundance: Family S24-7, Genus —, Species — (pre (baseline), table row r442): 0
- Abundance: Family Ruminococcaceae, Genus Oscillospira, Species — (pre (baseline), table row r443): 0
- Abundance: Family Erysipelotrichaceae, Genus —, Species — (pre (baseline), table row r446): 0
- Abundance: Family Streptococcaceae, Genus —, Species — (pre (baseline), table row r447): 0
- Abundance: Family Erysipelotrichaceae, Genus —, Species — (pre (baseline), table row r448): 0
- Abundance: Family Turicibacteraceae, Genus Turicibacter, Species — (pre (baseline), table row r449): 0
- Abundance: Family S24-7, Genus —, Species — (pre (baseline), table row r450): 0
- Abundance: Family Ruminococcaceae, Genus Oscillospira, Species — (pre (baseline), table row r451): 0
- Abundance: Family Lachnospiraceae, Genus —, Species — (pre (baseline), table row r452): 0
- Abundance: Family Erysipelotrichaceae, Genus —, Species — (pre (baseline), table row r454): 0
- Abundance: Family Ruminococcaceae, Genus Ruminococcus, Species — (pre (baseline), table row r455): 0
- Abundance: Family Moraxellaceae, Genus Psychrobacter, Species Other (pre (baseline), table row r456): 0
- Abundance: Family Paenibacillaceae, Genus Other, Species Other (pre (baseline), table row r457): 0
- Abundance: Family Lachnospiraceae, Genus Coprococcus, Species — (pre (baseline), table row r458): 0
- Abundance: Family Bacillaceae, Genus Bacillus, Species — (pre (baseline), table row r459): 0
- Abundance: Family Enterococcaceae, Genus Vagococcus, Species — (pre (baseline), table row r460): 0
- Abundance: Family Lachnospiraceae, Genus —, Species — (pre (baseline), table row r462): 0
- Abundance: Family Ruminococcaceae, Genus Oscillospira, Species — (pre (baseline), table row r466): 0
- Abundance: Family Erysipelotrichaceae, Genus —, Species — (pre (baseline), table row r468): 4
- Abundance: Family Other, Genus Other, Species Other (pre (baseline), table row r469): 0
- Abundance: Family Clostridiaceae, Genus Clostridium, Species Other (pre (baseline), table row r470): 0
- Abundance: Family Ruminococcaceae, Genus —, Species — (pre (baseline), table row r473): 3
- Abundance: Family Deferribacteraceae, Genus Mucispirillum, Species schaedleri (pre (baseline), table row r474): 0
- Abundance: Family Turicibacteraceae, Genus Turicibacter, Species — (pre (baseline), table row r475): 0
- Abundance: Family [Mogibacteriaceae], Genus —, Species — (pre (baseline), table row r478): 0
- Abundance: Family Lachnospiraceae, Genus Dorea, Species longicateria (pre (baseline), table row r480): 2
- Abundance: Family Ruminococcaceae, Genus —, Species — (pre (baseline), table row r481): 0
- Abundance: Family Lachnospiraceae, Genus —, Species — (pre (baseline), table row r482): 0
- Abundance Erysipelotrichaceae/Allobaculum/— (pre, line r8): 6375
- Abundance Turicibacteraceae/Turicibacter/— (pre, line r9): 9408
- Abundance Desulfovibrionaceae/—/— (pre, line r10): 3882
- Abundance Clostridiaceae/Other/Other (pre, line r11): 7143
- Abundance Lactobacillaceae/Lactobacillus/— (pre, line r12): 416
- Abundance Streptococcaceae/Lactococeus/— (pre, line r13): 2239
- Abundance Bacteroidaceae/Bacteroides/— (pre, line r14): 1596
- Abundance [Paraprevotellaceae]/[Prevotella]/— (pre, line r15): 1674
- Abundance —/—/— (pre, line r16): 1552
- Abundance Deferribacteraceae/Mucispirillum/schaedleri (pre, line r17): 4795
- Abundance Bacteroidaceae/Bacteroides/acidifaciens (pre, line r18): 983
- Abundance —/—/— (pre, line r19): 853
- Abundance Verrucomicrobiaceae/Akkermansia/muciniphila (pre, line r20): 2305
- Abundance Rikenellaceae/—/— (pre, line r21): 696
- Abundance Enterobacteriaceae/Other/Other (pre, line r22): 17
- Abundance Lactobacillaceae/Lactobacillus/— (pre, line r23): 883
- Abundance S24-7/—/— (pre, line r24): 623
- Abundance Lachnospiraceae/—/— (pre, line r25): 752
- Abundance Peptostreptocpccaceae/—/— (pre, line r26): 1121
- Abundance Lachnospiraceae/[Ruminococcus]/gnavus (pre, line r27): 2041
- Abundance Lachnospiraceae/Coprococeus/— (pre, line r28): 444
- Abundance Bifidobacteriaceae/Bifidobacterium/pseudolongum (pre, line r29): 1317
- Abundance Enterobacteriaceae/Proteus/— (pre, line r30): 0
- Abundance Lactobacillaceae/Lactobacillus/Other (pre, line r31): 64
- Abundance S24-7/—/— (pre, line r32): 740
- Abundance Porphyromonadaceae/Parabacteroides/distasonis (pre, line r33): 320
- Abundance Clostridiaceae/—/— (pre, line r34): 1242
- Abundance —/—/— (pre, line r35): 420
- Abundance Desulfovibrionaceae/Desulfovibrio/— (pre, line r36): 65
- Abundance S24-7/—/— (pre, line r37): 708
- Abundance Coriobacteriaceae/Adlercreutzia/— (pre, line r38): 625
- Abundance S24-7/—/— (pre, line r39): 480
- Abundance Erysipelotrichaceae/Clostridium/cocleatum (pre, line r40): 319
- Abundance Ruminococcaceae/Ruminococcus/— (pre, line r41): 1164
- Abundance Lachnospiraceae/Other/Other (pre, line r43): 481
- Abundance Lachnospiraceae/[Ruminococcus]/gnavus (pre, line r44): 311
- Abundance Turicibacteraceae/Turicibacter/— (pre, line r45): 586
- Abundance Lachnospiraceae/—/— (pre, line r46): 611
- Abundance Bacteroidaceae/Bacteroides/— (pre, line r47): 460
- Abundance Ruminococcaceae/Oscillospira/— (pre, line r48): 293
- Abundance Lachnospiraceae/Roseburia/— (pre, line r50): 488
- Abundance Lachnospiraceae/—/— (pre, line r51): 338
- Abundance S24-7/—/— (pre, line r52): 305
- Abundance Lachnospiraceae/[Ruminococcus]/gnavus (pre, line r53): 123
- Abundance Lachnospiraceae/Coprococcus/— (pre, line r56): 126
- Abundance S24-7/—/— (pre, line r57): 322
- Abundance S24-7/—/— (pre, line r58): 237
- Abundance Lachnospiraceae/Other/Other (pre, line r60): 562
- Abundance Lachnospiraceae/[Ruminococcus]/gnavus (pre, line r61): 375
- Abundance Erysipelotrichaceae/Allobaculum/— (pre, line r62): 286
- Abundance Desulfovibrionaceae/Desulfovibrio/C21_c20 (pre, line r63): 604
- Abundance S24-7/—/— (pre, line r64): 383
- Abundance Streptococcaceae/Lactococcus/garvieae (pre, line r66): 11
- Abundance Enterobacteriaceae/Proteus/— (pre, line r68): 0
- Abundance Lachnospiraceae/—/— (pre, line r69): 44
- Abundance S24-7/—/— (pre, line r70): 399
- Abundance Lachnospiraceae/[Ruminococcus]/gnavus (pre, line r71): 278
- Abundance Clostridiaceae/Clostridium/Other (pre, line r73): 707
- Abundance Lachnospiraceae/—/— (pre, line r74): 0
- Abundance Clostridiaceae/Other/Other (pre, line r75): 215
- Abundance Clostridiaceae/Other/Other (pre, line r77): 255
- Abundance S24-7/—/— (pre, line r78): 196
- Abundance Lachnospiraceae/[Ruminococcus]/gnavus (pre, line r79): 601
- Abundance Bacteroidaceae/Bacteroides/— (pre, line r80): 170
